Legend:
K562 [1] = assay: Potentiation of 5 nM (-)-lomaiviticin A-induced cytotoxicity against human K562 cells assessed as combination index at 5 uM after 48 hrs by cell titer-glo luminescence assay; format: functional
K562 [2] = assay: Potentiation of 0.025 nM (-)-lomaiviticin A-induced cytotoxicity against human K562 cells assessed as fraction ratio affected at 5 uM after 24 hrs by cell titer-glo luminescence assay; format: functional
K562 [3] = assay: Potentiation of 0.25 nM (-)-lomaiviticin A-induced cytotoxicity against human K562 cells assessed as combination index at 5 uM after 48 hrs by cell titer-glo luminescence assay; format: functional
K562 [4] = assay: Potentiation of 0.05 nM (-)-lomaiviticin A-induced cytotoxicity against human K562 cells assessed as combination index at 5 uM after 24 hrs by cell titer-glo luminescence assay; format: functional
K562 [5] = assay: Potentiation of 0.05 nM (-)-lomaiviticin A-induced cytotoxicity against human K562 cells assessed as combination index at 5 uM after 48 hrs by cell titer-glo luminescence assay; format: functional
K562 [6] = assay: Potentiation of 0.025 nM (-)-lomaiviticin A-induced cytotoxicity against human K562 cells assessed as combination index at 5 uM after 48 hrs by cell titer-glo luminescence assay; format: functional
K562 [7] = assay: Potentiation of 0.5 nM (-)-lomaiviticin A-induced cytotoxicity against human K562 cells assessed as combination index at 5 uM after 48 hrs by cell titer-glo luminescence assay; format: functional
K562 [8] = assay: Potentiation of 0.025 nM (-)-lomaiviticin A-induced cytotoxicity against human K562 cells assessed as combination index at 5 uM after 24 hrs by cell titer-glo luminescence assay; format: functional
K562 [9] = assay: Potentiation of 0.5 nM (-)-lomaiviticin A-induced cytotoxicity against human K562 cells assessed as fraction ratio affected at 5 uM after 48 hrs by cell titer-glo luminescence assay; format: functional
K562 [10] = assay: Potentiation of 2.5 nM (-)-lomaiviticin A-induced cytotoxicity against human K562 cells assessed as fraction ratio affected at 5 uM after 48 hrs by cell titer-glo luminescence assay; format: functional
K562 [11] = assay: Cytotoxicity against human K562 cells assessed as decrease in cell viability up to 2.5 to 10 uM after 24 to 48 hrs by cell titer-glo luminescence assay; format: cell-based
K562 [12] = assay: Potentiation of 2.5 nM (-)-lomaiviticin A-induced cytotoxicity against human K562 cells assessed as fraction ratio affected at 5 uM after 24 hrs by cell titer-glo luminescence assay; format: functional
K562 [13] = assay: Potentiation of 0.5 nM (-)-lomaiviticin A-induced cytotoxicity against human K562 cells assessed as combination index at 5 uM after 24 hrs by cell titer-glo luminescence assay; format: functional
K562 [14] = assay: Potentiation of 0.05 nM (-)-lomaiviticin A-induced cytotoxicity against human K562 cells assessed as fraction ratio affected at 5 uM after 24 hrs by cell titer-glo luminescence assay; format: functional
K562 [15] = assay: Potentiation of 5 nM (-)-lomaiviticin A-induced cytotoxicity against human K562 cells assessed as fraction ratio affected at 5 uM after 48 hrs by cell titer-glo luminescence assay; format: functional
K562 [16] = assay: Potentiation of 2.5 nM (-)-lomaiviticin A-induced cytotoxicity against human K562 cells assessed as combination index at 5 uM after 48 hrs by cell titer-glo luminescence assay; format: functional
K562 [17] = assay: Potentiation of 5 nM (-)-lomaiviticin A-induced cytotoxicity against human K562 cells assessed as fraction ratio affected at 5 uM after 24 hrs by cell titer-glo luminescence assay; format: functional
K562 [18] = assay: Potentiation of 0.5 nM (-)-lomaiviticin A-induced cytotoxicity against human K562 cells assessed as fraction ratio affected at 5 uM after 24 hrs by cell titer-glo luminescence assay; format: functional
K562 [19] = assay: Potentiation of 5 nM (-)-lomaiviticin A-induced cytotoxicity against human K562 cells assessed as combination index at 5 uM after 24 hrs by cell titer-glo luminescence assay; format: functional
K562 [20] = assay: Potentiation of 0.05 nM (-)-lomaiviticin A-induced cytotoxicity against human K562 cells assessed as fraction ratio affected at 5 uM after 48 hrs by cell titer-glo luminescence assay; format: functional
K562 [21] = assay: Potentiation of 2.5 nM (-)-lomaiviticin A-induced cytotoxicity against human K562 cells assessed as combination index at 5 uM after 24 hrs by cell titer-glo luminescence assay; format: functional
K562 [22] = assay: Potentiation of 0.25 nM (-)-lomaiviticin A-induced cytotoxicity against human K562 cells assessed as fraction ratio affected at 5 uM after 48 hrs by cell titer-glo luminescence assay; format: functional
K562 [23] = assay: Potentiation of 0.25 nM (-)-lomaiviticin A-induced cytotoxicity against human K562 cells assessed as fraction ratio affected at 5 uM after 24 hrs by cell titer-glo luminescence assay; format: functional
K562 [24] = assay: Potentiation of 0.25 nM (-)-lomaiviticin A-induced cytotoxicity against human K562 cells assessed as combination index at 5 uM after 24 hrs by cell titer-glo luminescence assay; format: functional
K562 [25] = assay: Potentiation of 0.025 nM (-)-lomaiviticin A-induced cytotoxicity against human K562 cells assessed as fraction ratio affected at 5 uM after 48 hrs by cell titer-glo luminescence assay; format: functional
[26] = Cytotoxicity against human K562 cells assessed as decrease in cell viability after 48 hrs by cell titer-glo luminescence assay; format: cell-based; details: read-out: ED50
K562 [27] = assay: Cytotoxicity against human K562 cells assessed as decrease in cell viability after 24 to 48 hrs by cell titer-glo luminescence assay; format: cell-based
K562 [28] = assay: Potentiation of 5x10'-5 uM (-)-lomaiviticin A-induced cytotoxicity against human K562 cells assessed as combination index at 5 uM after 24 hrs by cell titer-glo luminescence assay; format: functional
K562 [29] = assay: Potentiation of 0.0025 uM (-)-lomaiviticin A-induced cytotoxicity against human K562 cells assessed as fraction ratio affected at 5 uM after 48 hrs by cell titer-glo luminescence assay; format: functional
K562 [30] = assay: Potentiation of 0.0025 uM (-)-lomaiviticin A-induced cytotoxicity against human K562 cells assessed as combination index at 5 uM after 48 hrs by cell titer-glo luminescence assay; format: functional
K562 [31] = assay: Potentiation of 2.5x10'-5 uM (-)-lomaiviticin A-induced cytotoxicity against human K562 cells assessed as combination index at 5 uM after 48 hrs by cell titer-glo luminescence assay; format: functional
K562 [32] = assay: Potentiation of 0.0050 uM (-)-lomaiviticin A-induced cytotoxicity against human K562 cells assessed as combination index at 5 uM after 24 hrs by cell titer-glo luminescence assay; format: functional
K562 [33] = assay: Potentiation of 2.5x10'-5 uM (-)-lomaiviticin A-induced cytotoxicity against human K562 cells assessed as combination index at 5 uM after 24 hrs by cell titer-glo luminescence assay; format: functional
K562 [34] = assay: Potentiation of 5x10'-4 uM (-)-lomaiviticin A-induced cytotoxicity against human K562 cells assessed as fraction ratio affected at 5 uM after 48 hrs by cell titer-glo luminescence assay; format: functional
K562 [35] = assay: Potentiation of 0.0050 uM (-)-lomaiviticin A-induced cytotoxicity against human K562 cells assessed as fraction ratio affected at 5 uM after 24 hrs by cell titer-glo luminescence assay; format: functional
K562 [36] = assay: Potentiation of 5x10'-4 uM (-)-lomaiviticin A-induced cytotoxicity against human K562 cells assessed as combination index at 5 uM after 24 hrs by cell titer-glo luminescence assay; format: functional
K562 [37] = assay: Potentiation of 2.5x10'-4 uM (-)-lomaiviticin A-induced cytotoxicity against human K562 cells assessed as fraction ratio affected at 5 uM after 48 hrs by cell titer-glo luminescence assay; format: functional
K562 [38] = assay: Potentiation of 2.5x10'-4 uM (-)-lomaiviticin A-induced cytotoxicity against human K562 cells assessed as combination index at 5 uM after 48 hrs by cell titer-glo luminescence assay; format: functional
K562 [39] = assay: Potentiation of 5x10'-5 uM (-)-lomaiviticin A-induced cytotoxicity against human K562 cells assessed as combination index at 5 uM after 48 hrs by cell titer-glo luminescence assay; format: functional
K562 [40] = assay: Potentiation of 0.0050 uM (-)-lomaiviticin A-induced cytotoxicity against human K562 cells assessed as fraction ratio affected at 5 uM after 48 hrs by cell titer-glo luminescence assay; format: functional
K562 [41] = assay: Potentiation of 2.5x10'-4 uM (-)-lomaiviticin A-induced cytotoxicity against human K562 cells assessed as combination index at 5 uM after 24 hrs by cell titer-glo luminescence assay; format: functional
K562 [42] = assay: Potentiation of 5x10'-4 uM (-)-lomaiviticin A-induced cytotoxicity against human K562 cells assessed as combination index at 5 uM after 48 hrs by cell titer-glo luminescence assay; format: functional
K562 [43] = assay: Potentiation of 0.0050 uM (-)-lomaiviticin A-induced cytotoxicity against human K562 cells assessed as combination index at 5 uM after 48 hrs by cell titer-glo luminescence assay; format: functional
K562 [44] = assay: Potentiation of 2.5x10'-5 uM (-)-lomaiviticin A-induced cytotoxicity against human K562 cells assessed as fraction ratio affected at 5 uM after 48 hrs by cell titer-glo luminescence assay; format: functional
K562 [45] = assay: Potentiation of 0.0025 uM (-)-lomaiviticin A-induced cytotoxicity against human K562 cells assessed as combination index at 5 uM after 24 hrs by cell titer-glo luminescence assay; format: functional

## O=c1cc(N2CCOCC2)oc2c(-c3cccc4c3sc3ccccc34)cccc12
K562 [1]
  CI: 0.6686
K562 [2]
  Ratio: 0.1436
K562 [3]
  CI: 0.8337
K562 [4]
  CI: 0.1033
K562 [5]
  CI: 0.4461
K562 [6]
  CI: 0.4328
K562 [7]
  CI: 1.056
K562 [8]
  CI: 0.0855
K562 [9]
  Ratio: 0.6811
K562 [10]
  Ratio: 0.9451
K562 [11]
  Activity: Non-toxic
K562 [12]
  Ratio: 0.7163
K562 [13]
  CI: 0.3196
K562 [14]
  Ratio: 0.1367
K562 [15]
  Ratio: 0.9912
K562 [16]
  CI: 1.147
K562 [17]
  Ratio: 0.9647
K562 [18]
  Ratio: 0.2584
K562 [19]
  CI: 0.9596
K562 [20]
  Ratio: 0.5477
K562 [21]
  CI: 0.8596
K562 [22]
  Ratio: 0.5832
K562 [23]
  Ratio: 0.1927
K562 [24]
  CI: 0.2068
K562 [25]
  Ratio: 0.4881

## O=C(CCCCCCC(=O)Nc1ccccc1)NO [VORINOSTAT]
[26]
  CC50 at 48 h: 1.25 µM
K562 [27]
  Activity: Dose-dependent effect

## O=C(c1cc(Cc2n[nH]c(=O)c3ccccc23)ccc1F)N1CCN(C(=O)C2CC2)CC1 [OLAPARIB]
K562 [28]
  CI: 28.4346
K562 [29]
  Ratio: 0.3508
K562 [30]
  CI: 1.277
K562 [31]
  CI: 0.138
K562 [32]
  CI: 1.234
K562 [33]
  CI: 0.182
K562 [34]
  Ratio: 0.1238
K562 [11]
  Activity: Non-toxic
K562 [35]
  Ratio: 0.03638
K562 [36]
  CI: 31.4921
K562 [37]
  Ratio: 0.02866
K562 [38]
  CI: 0.2699
K562 [39]
  CI: 29.2295
K562 [40]
  Ratio: 0.557
K562 [41]
  CI: 29.7935
K562 [42]
  CI: 0.358
K562 [43]
  CI: 2.076
K562 [44]
  Ratio: 0.00109
K562 [45]
  CI: 45.0812

Source: ChEMBL document CHEMBL3808308, “Synergistic potentiation of (-)-lomaiviticin A cytotoxicity by the ATR inhibitor VE-821” (Bioorg Med Chem Lett, 2016)
